As usually defined, the IC50 is the concentration needed to halve the response being measured. High values mean weaker potency in that assay, low ones greater potency in that assay.

Experimental findings from patent publication US10543212B2, “Substituted amines for treating cardiac diseases” (Cardurion Pharmaceuticals, LLC, priority 2017, dated 2020) are described below.

In this test the target is T1, Full-length, GST-tagged, human CaMKIIδ (Homo sapiens, UniProt Q13557).
T1 construct: Full-Length, Glutathione-S-Transferase(GST)-Tagged, Human CaMKIIδ was purchased from Carna Biosciences; purchased Carna Biosciences 02-111
Briefly: CaMKIIδ binding assay (TR-FRET with BODIPY-labeled probe ligand). The procedure, abridged:
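TR-FRET probe-displacement binding: 0.5 nM GST-CaMKIIδ with 10 μg/mL calmodulin, 1 mM CaCl2, 0.21 nM Tb-anti-GST Ab and 300 nM BODIPY probe in HEPES pH 7.6 buffer. Eight-point 4-fold dilutions, 1 hr at room temperature. IC50 from logistic fit; 100% inhibition defined by 3 μM parent compound.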
In general terms: In TR-FRET formats the signal depends on donor and acceptor labels being close together.

The mark [1] stands for this setting: Table 2, CaMKIIδ binding assay, activity given as class A/B/C.
Where [2] appears, read: Table 2, activity class for CaMKIIδ.
Setting [3] is: CaMKIIδ binding assay, results of Table 2.
The mark [4] stands for this setting: CaMKIIδ binding assay, activity class per Table 2.

Molecules are shown by their SMILES. Structures can show the parent of a compound that is named as a salt.

T1 sequence (Q13557 1-478 isoform Q13557-12): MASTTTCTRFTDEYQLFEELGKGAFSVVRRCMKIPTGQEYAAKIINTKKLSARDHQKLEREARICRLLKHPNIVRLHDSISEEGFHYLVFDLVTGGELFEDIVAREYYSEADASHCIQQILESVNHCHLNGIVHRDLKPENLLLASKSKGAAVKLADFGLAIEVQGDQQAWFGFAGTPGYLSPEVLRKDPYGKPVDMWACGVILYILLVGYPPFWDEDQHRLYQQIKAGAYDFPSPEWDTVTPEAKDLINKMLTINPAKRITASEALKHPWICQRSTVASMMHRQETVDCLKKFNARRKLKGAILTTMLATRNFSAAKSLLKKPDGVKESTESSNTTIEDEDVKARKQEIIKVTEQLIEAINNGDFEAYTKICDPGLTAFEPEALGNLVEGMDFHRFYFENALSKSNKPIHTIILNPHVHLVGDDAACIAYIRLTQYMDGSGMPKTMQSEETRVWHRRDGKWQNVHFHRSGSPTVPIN

In turn, `C[C@@H](Cn1cnnn1)Oc1cc(-c2cnc(Nc3cn([C@@H](C)CO)nc3OCC(F)(F)F)nc2)ccc1Cl` [Example 775, (S)-2-(4-((5-(3-(((S)-1-(1H-tetrazol-1-yl)propan-2-yl)oxy)-4-chlorophenyl)pyrimidin-2-yl)amino)-3-(2,2,2-trifluoroethoxy)-1H-pyrazol-1-yl)propan-1-ol] showed an IC50 under setting [1] of under 0.01 µM.

`C[C@@H](Cn1cnnn1)Oc1cc(-c2cnc(Nc3cn(C4CN(C(=O)OC(C)(C)C)C4)nc3C(F)(F)F)nc2)ccc1Cl` [Example 696, tert-butyl (S)-3-(4-((5-(3-((1-(1H-tetrazol-1-yl)propan-2-yl)oxy)-4-chlorophenyl)pyrimidin-2-yl)amino)-3-(trifluoromethyl)-1H-pyrazol-1-yl)azetidine-1-carboxylate] showed an IC50 under setting [2] of 0.01 to 0.1 µM.

In the case of `C[C@@H](Cn1cnnn1)Oc1cc(-c2cnc(Nc3cn(C4CCN(CC#N)CC4)nc3C(F)(F)F)nc2)ccc1Cl` [Example 536, (S)-2-(4-(4-((5-(3-((1-(1H-tetrazol-1-yl)propan-2-yl)oxy)-4-chlorophenyl)pyrimidin-2-yl)amino)-3-(trifluoromethyl)-1H-pyrazol-1-yl)piperidin-1-yl)acetonitrile], the IC50 under setting [3] is 0.01 to 0.1 µM.

`COc1ccc(N2CCC(N3CCOCC3)CC2)cc1Nc1ncc(-c2ccc(C#N)c(O[C@@H](C)COC(F)F)c2)cn1` [Example 495, (S)-2-((1-(difluoromethoxy)propan-2-yl)oxy)-4-(2-((2-methoxy-5-(4-morpholinopiperidin-1-yl)phenyl)amino)pyrimidin-5-yl)benzonitrile] registered an IC50 under setting [3] of 0.01 to 0.1 µM.

With `C[C@@H](Cn1cnnn1)Oc1cc(-c2cnc(Nc3cn(Cc4n[nH]c(=O)[nH]4)nc3C(F)(F)F)nc2)ccc1Cl` [Example 722, (S)-5-((4-((5-(3-((1-(1H-tetrazol-1-yl)propan-2-yl)oxy)-4-chlorophenyl)pyrimidin-2-yl)amino)-3-(trifluoromethyl)-1H-pyrazol-1-yl)methyl)-2,4-dihydro-3H-1,2,4-triazol-3-one], under setting [2], the IC50 is at least 0.1 µM.

Under setting [3], `COc1cc2c(cc1Nc1ncc(-c3ccc(Cl)c(O[C@@H](C)Cn4cnnn4)c3)cn1)NCC2` [Example 477, (S)-N-(5-(3-((1-(1H-tetrazol-1-yl)propan-2-yl)oxy)-4-chlorophenyl)pyrimidin-2-yl)-5-methoxyindolin-6-amine] came in with an IC50 of 0.01 to 0.1 µM.

`COc1ccc(N2CCN(C)CC2)cc1Nc1ncc(-c2ccc(Cl)c(O[C@@H](C)Cn3cnnn3)c2)cn1` [Example 584, (S)-5-(3-((1-(1H-tetrazol-1-yl)propan-2-yl)oxy)-4-chlorophenyl)-N-(2-methoxy-5-(4-methylpiperazin-1-yl)phenyl)pyrimidin-2-amine] came in with an IC50 under setting [2] of under 0.01 µM.

`COc1cc2c(cc1Nc1ncc(-c3ccc(Cl)c(O[C@@H](C)Cn4cnnn4)c3)cn1)CCN(CC(=O)O)C2` [Example 506, (S)-2-(6-((5-(3-((1-(1H-tetrazol-1-yl)propan-2-yl)oxy)-4-chlorophenyl)pyrimidin-2-yl)amino)-7-methoxy-3,4-dihydroisoquinolin-2(1H)-yl)acetic acid] displayed an IC50 under setting [3] of under 0.01 µM.

`C[C@@H](Cn1cnnn1)Oc1cc(-c2cnc(Nc3cn(C4CC5(C4)CN(C4CCC4)C5)nc3OCC(F)(F)F)nc2)ccc1Cl` [Example 933, (S)-5-(3-((1-(1H-tetrazol-1-yl)propan-2-yl)oxy)-4-chlorophenyl)-N-(1-(2-cyclobutyl-2-azaspiro[3.3]heptan-6-yl)-3-(2,2,2-trifluoroethoxy)-1H-pyrazol-4-yl)pyrimidin-2-amine] registered an IC50 under setting [4] of under 0.01 µM.

Molecule `C[C@H](CO)n1cc(Nc2ncc(-c3ccc(Cl)c(O[C@@H](C)Cn4cnnn4)c3)cn2)c(OCC(F)(F)F)n1` [Example 787, (R)-2-(4-((5-(3-(((S)-1-(1H-tetrazol-1-yl)propan-2-yl)oxy)-4-chlorophenyl)pyrimidin-2-yl)amino)-3-(2,2,2-trifluoroethoxy)-1H-pyrazol-1-yl)propan-1-ol] showed an IC50 under setting [1] of under 0.01 µM.

Under setting [4], `C[C@@H](Cn1cnnn1)Oc1cc(-c2cnc(Nc3cn(CC(O)CN4CCOCC4)nc3OCC(F)(F)F)nc2)ccc1Cl` (stereo partly drawn) [Example 913, 1-(4-((5-(3-(((S)-1-(1H-tetrazol-1-yl)propan-2-yl)oxy)-4-chlorophenyl)pyrimidin-2-yl)amino)-3-(2,2,2-trifluoroethoxy)-1H-pyrazol-1-yl)-3-morpholinopropan-2-ol] returned an IC50 of under 0.01 µM.

Under setting [3], `COc1cc2c(cc1Nc1ncc(-c3ccc(Cl)c(O[C@@H](C)Cn4cnnn4)c3)cn1)C(=O)N(CCN(C)C)C2` [Example 512, (S)-6-((5-(3-((1-(1H-tetrazol-1-yl)propan-2-yl)oxy)-4-chlorophenyl)pyrimidin-2-yl)amino)-2-(2-(dimethylamino)ethyl)-5-methoxyisoindolin-1-one] registered an IC50 of 0.01 to 0.1 µM.

In turn, `COc1cc(C2=CCN(C3COC3)CC2)c(C)cc1Nc1ncc(-c2ccc(C#N)c(O[C@@H](C)Cn3cnnn3)c2)cn1` [Example 530, (S)-2-((1-(1H-tetrazol-1-yl)propan-2-yl)oxy)-4-(2-((2-methoxy-5-methyl-4-(1-(oxetan-3-yl)-1,2,3,6-tetrahydropyridin-4-yl)phenyl)amino)pyrimidin-5-yl)benzonitrile] showed an IC50 under setting [3] of under 0.01 µM.

The molecule `C[C@@H](Cn1cnnn1)Oc1cc(-c2cnc(Nc3cn(C4CCN(C5CCOCC5)CC4)nc3OCC(F)(F)F)nc2)ccc1F` [Example 789, (S)-5-(3-((1-(1H-tetrazol-1-yl)propan-2-yl)oxy)-4-fluorophenyl)-N-(1-(1-(tetrahydro-2H-pyran-4-yl)piperidin-4-yl)-3-(2,2,2-trifluoroethoxy)-1H-pyrazol-4-yl)pyrimidin-2-amine] displayed an IC50 under setting [1] of under 0.01 µM.

The molecule `C[C@@H](Cn1cnnn1)Oc1cc(-c2cnc(Nc3cn([C@H]4CC[C@H](N5CCOCC5)CC4)nc3OCC(F)(F)F)nc2)ccc1C#N` [Example 817, 2-(((S)-1-(1H-tetrazol-1-yl)propan-2-yl)oxy)-4-(2-((1-(trans-4-morpholinocyclohexyl)-3-(2,2,2-trifluoroethoxy)-1H-pyrazol-4-yl)amino)pyrimidin-5-yl)benzonitrile hydrochloride] returned an IC50 under setting [1] of under 0.01 µM.

`COc1ccc(C(=O)N2CCCN(C)CC2)cc1Nc1ncc(-c2ccc(Cl)c(O[C@@H](C)Cn3cnnn3)c2)cn1` [Example 544, (S)-(3-((5-(3-((1-(1H-tetrazol-1-yl)propan-2-yl)oxy)-4-chlorophenyl)pyrimidin-2-yl)amino)-4-methoxyphenyl) (4-methyl-1,4-diazepan-1-yl)methanone] gave an IC50 under setting [3] of under 0.01 µM.

In turn, `Cc1cc(Nc2ncc(-c3ccc(Cl)c(O[C@@H](C)Cn4cnnn4)c3)cn2)n(-c2ccccn2)n1` [Example 660, (S)-5-(3-((1-(1H-tetrazol-1-yl)propan-2-yl)oxy)-4-chlorophenyl)-N-(3-methyl-1-(pyridin-2-yl)-1H-pyrazol-5-yl)pyrimidin-2-amine] gave a concentration for half-maximal inhibition (IC50) under setting [2] of at least 0.1 µM.

The molecule `C[C@@H](Cn1cnnn1)Oc1cc(-c2cnc(Nc3cn(CC4(O)CCN(C5CCC5)CC4)nc3OCC(F)(F)F)nc2)ccc1Cl` [Example 908, (S)-4-((4-((5-(3-((1-(1H-tetrazol-1-yl)propan-2-yl)oxy)-4-chlorophenyl)pyrimidin-2-yl)amino)-3-(2,2,2-trifluoroethoxy)-1H-pyrazol-1-yl)methyl)-1-cyclobutylpiperidin-4-ol] displayed an IC50 under setting [4] of under 0.01 µM.
